Source: the Kinase Knowledgebase extract (Sharma et al. 2016)
pIC50: −log10 of the molar value. Each block holds one compound with its values, some of them ahead of it. Numbered stars: 1 amine (or outer) side, 2 acyl side, 3 side chain; on linkers, the order of the positions; unused ones are H or OH. Square brackets hold non-standard residues; d marks the D form. Residues, ends and D or L forms follow the SMILES beside them. Peptide text beside a SMILES is read from it. ξ: configuration not given here. *: point of attachment. X1 = O=C1NC(=O)C(c2cn(CCOCCOCC*)c3ccccc23)=C1c1c[nH]c2ccccc12; X2 = O=CC(=O)CCc1ccc(CC(N[*:1])C(=O)[*:2])cc1; Ile(3ξ) = CCC(C)[C@H](N)C(=O)O

Experiments:
EGFR (human) [1] = biological target: EGFR (human) (UniProt P00533)
EGFR (human) [2] = biological target: EGFR (human) (UniProt P00533); conditions: hn5
MAPK14 (human) [3] = biological target: MAPK14 (human) (UniProt Q16539); assay: TNFalpha Inhibition; conditions: pbmc
EGFR (human) [4] = biological target: EGFR (human) (UniProt P00533); remark: listed apart in the source
MAPK14 (human) [5] = biological target: MAPK14 (human) (UniProt Q16539); assay: Cellular Inhibition of MAPK14 Kinase in A549 Cells
MAPK14 (human) [6] = biological target: MAPK14 (human) (UniProt Q16539); assay: p38 --- TNF Inhibition (PBMC cells)
EGFR [7] = biological target: EGFR (UniProt P00533)
EGFR (human) [8] = biological target: EGFR (human) (UniProt P00533); conditions: a431
EGFR (human) [9] = biological target: EGFR (human) (UniProt P00533); remark: listed apart in the source
EGFR (human) [10] = biological target: EGFR (human) (UniProt P00533); conditions: a431; remark: listed apart in the source
EGFR (human) [11] = biological target: EGFR (human) (UniProt P00533); conditions: a431; remark: listed apart in the source
EGFR (human) [12] = biological target: EGFR (human) (UniProt P00533); conditions: a549
PIK3CA (human) [13] = biological target: PIK3CA (human) (UniProt P42336); assay: Inhibition of PIK3CA Kinase Activity
PIK3CA (human) [14] = biological target: PIK3CA (human) (UniProt P42336); assay: Assesment of Cell Proliferation of IGROV-1 Cells Using SRB Assay
EGFR (human) [15] = biological target: EGFR (human) (UniProt P00533); conditions: a431; remark: listed apart in the source
MAPK14 [16] = biological target: MAPK14 (UniProt Q16539); assay: CSBP Inhibition
EGFR (murine) = EGFR (murine) (UniProt P00533); conditions: nih3t3/c7
EGFR [17] = biological target: EGFR (UniProt P00533); remark: listed apart in the source
CDK2 = CDK2 (UniProt P24941); assay: Enzyme Assay; conditions: concentration not given here
MAPK14 [18] = biological target: MAPK14 (UniProt Q16539); assay: p38-alpha Kinase Inhibition; conditions: concentration not given here
ROCK2 = ROCK2 (UniProt O75116); assay: ROCK2 Kinase Inhibition; conditions: concentration not given here
EGFR [19] = biological target: EGFR (UniProt P00533); remark: listed apart in the source
EGFR (human) [20] = biological target: EGFR (human) (UniProt P00533); conditions: a431; remark: listed apart in the source
MAPK14 (human) [21] = biological target: MAPK14 (human) (UniProt Q16539); assay: p38-mediated TNF-alpha Inhibition (LPS-Stimulated PBMCs); conditions: pbmc
EGFR [22] = biological target: EGFR (UniProt P00533); remark: listed apart in the source
[23] = biological target: PIK3CB;PIK3CG;PIK3CD;PIK3CA (human) (UniProt P48736); assay: Assessment of PIK3CA/PIK3CB/PIK3CD/PIK3CG Kinase Activity
EGFR (human) [24] = biological target: EGFR (human) (UniProt P00533); conditions: a431; remark: listed apart in the source
EGFR [25] = biological target: EGFR (UniProt P00533); remark: listed apart in the source
PIK3CB (Human) = PIK3CB (Human) (UniProt P42338); assay: Inhibition of PIK3CB Kinase (ATP Loss) Activity
MAPK14 (human) [26] = biological target: MAPK14 (human) (UniProt Q16539); assay: Cell-Based Assay; conditions: a375

Chain of EGFR (P00533 whole entry, looked up): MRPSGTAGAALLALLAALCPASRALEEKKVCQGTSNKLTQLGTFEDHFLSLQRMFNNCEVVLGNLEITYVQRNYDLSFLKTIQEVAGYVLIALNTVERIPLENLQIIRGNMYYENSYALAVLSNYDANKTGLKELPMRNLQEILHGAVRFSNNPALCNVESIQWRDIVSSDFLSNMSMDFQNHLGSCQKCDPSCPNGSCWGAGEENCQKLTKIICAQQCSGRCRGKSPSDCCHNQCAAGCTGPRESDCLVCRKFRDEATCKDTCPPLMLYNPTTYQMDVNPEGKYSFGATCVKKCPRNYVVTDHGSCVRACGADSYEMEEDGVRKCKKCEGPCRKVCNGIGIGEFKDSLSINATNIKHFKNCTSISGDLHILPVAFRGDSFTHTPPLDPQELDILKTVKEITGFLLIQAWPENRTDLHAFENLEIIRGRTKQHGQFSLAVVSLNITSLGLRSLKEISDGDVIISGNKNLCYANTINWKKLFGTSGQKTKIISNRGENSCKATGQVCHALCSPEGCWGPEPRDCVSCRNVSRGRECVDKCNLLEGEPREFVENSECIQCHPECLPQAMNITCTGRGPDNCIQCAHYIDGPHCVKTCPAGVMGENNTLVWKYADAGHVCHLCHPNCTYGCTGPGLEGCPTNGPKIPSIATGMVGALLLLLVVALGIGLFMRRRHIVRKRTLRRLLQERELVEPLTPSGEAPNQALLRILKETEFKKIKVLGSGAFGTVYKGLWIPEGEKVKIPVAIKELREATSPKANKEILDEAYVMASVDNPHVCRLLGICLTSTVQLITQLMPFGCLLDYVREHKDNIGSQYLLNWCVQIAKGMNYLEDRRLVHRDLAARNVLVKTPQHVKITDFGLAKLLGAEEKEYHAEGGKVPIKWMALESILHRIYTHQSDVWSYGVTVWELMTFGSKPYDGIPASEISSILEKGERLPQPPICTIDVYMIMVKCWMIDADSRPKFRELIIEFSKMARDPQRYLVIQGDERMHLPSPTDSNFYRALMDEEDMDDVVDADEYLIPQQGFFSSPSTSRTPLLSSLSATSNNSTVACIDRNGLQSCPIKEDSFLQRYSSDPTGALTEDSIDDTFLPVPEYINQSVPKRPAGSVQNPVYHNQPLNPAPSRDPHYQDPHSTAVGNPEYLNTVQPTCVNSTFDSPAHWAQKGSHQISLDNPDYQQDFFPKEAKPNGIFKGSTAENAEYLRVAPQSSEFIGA
Chain of EGFR (human) (P00533 whole entry, looked up): as above
Chain of MAPK14 (Q16539 whole entry, looked up): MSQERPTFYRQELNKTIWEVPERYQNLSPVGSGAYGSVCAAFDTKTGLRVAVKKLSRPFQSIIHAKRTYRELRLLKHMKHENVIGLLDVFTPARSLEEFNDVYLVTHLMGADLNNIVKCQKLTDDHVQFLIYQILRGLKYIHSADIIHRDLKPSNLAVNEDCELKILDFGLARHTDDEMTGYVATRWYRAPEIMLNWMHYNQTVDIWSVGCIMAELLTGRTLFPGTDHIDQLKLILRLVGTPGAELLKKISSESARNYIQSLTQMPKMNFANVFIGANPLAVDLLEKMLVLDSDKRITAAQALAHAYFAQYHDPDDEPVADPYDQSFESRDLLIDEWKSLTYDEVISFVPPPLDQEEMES
Chain of MAPK14 (human) (Q16539 whole entry, looked up): as above
Chain of EGFR (murine) (P00533 whole entry, looked up): as the sequence (P00533 whole entry, looked up) above
Chain of PIK3CA (human) (P42336 whole entry, looked up): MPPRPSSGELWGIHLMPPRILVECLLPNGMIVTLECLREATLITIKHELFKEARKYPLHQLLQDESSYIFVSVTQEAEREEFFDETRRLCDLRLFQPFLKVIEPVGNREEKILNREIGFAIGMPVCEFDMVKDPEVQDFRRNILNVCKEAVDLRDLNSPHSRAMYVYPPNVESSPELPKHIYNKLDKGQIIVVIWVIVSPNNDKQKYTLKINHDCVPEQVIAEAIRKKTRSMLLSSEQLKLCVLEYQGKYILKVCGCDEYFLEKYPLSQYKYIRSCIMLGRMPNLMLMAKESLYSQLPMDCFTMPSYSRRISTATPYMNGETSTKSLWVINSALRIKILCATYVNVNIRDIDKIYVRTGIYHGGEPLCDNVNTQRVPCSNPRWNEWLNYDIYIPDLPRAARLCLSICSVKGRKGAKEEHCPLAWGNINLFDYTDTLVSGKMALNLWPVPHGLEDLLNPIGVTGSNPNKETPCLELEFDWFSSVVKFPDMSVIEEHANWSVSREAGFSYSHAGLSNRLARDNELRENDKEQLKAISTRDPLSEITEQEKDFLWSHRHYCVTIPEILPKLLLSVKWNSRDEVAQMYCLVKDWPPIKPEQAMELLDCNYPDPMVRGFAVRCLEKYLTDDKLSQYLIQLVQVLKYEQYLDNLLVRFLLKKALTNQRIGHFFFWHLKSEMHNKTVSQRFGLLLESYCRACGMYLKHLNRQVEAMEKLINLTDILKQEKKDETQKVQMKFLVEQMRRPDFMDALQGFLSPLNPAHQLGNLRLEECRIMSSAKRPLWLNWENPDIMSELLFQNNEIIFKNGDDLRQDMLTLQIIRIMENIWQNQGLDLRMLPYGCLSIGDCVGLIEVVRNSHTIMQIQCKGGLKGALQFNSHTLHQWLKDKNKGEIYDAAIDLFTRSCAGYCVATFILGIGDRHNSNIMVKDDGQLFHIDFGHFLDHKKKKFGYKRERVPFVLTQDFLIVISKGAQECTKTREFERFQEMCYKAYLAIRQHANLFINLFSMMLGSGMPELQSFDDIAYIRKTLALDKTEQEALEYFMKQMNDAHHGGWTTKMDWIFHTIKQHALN

pIC50 (EGFR (human) [1]): 6.98
Structure (SMILES): C=CC(=O)N1CCC[C@H](n2cnc3c(N)nc(Nc4ccc(OCCOC)cc4)nc32)C1

pIC50 (EGFR (human) [2]): 3.89
Structure (SMILES): Oc1cc(O)c2nc(-c3ccc(O)c(O)c3)sc2c1

pIC50 (MAPK14 (human) [3]): 5.15
Structure (SMILES): Cc1ccc(NC(=O)c2ccnc(N3CCOCC3)c2)cc1-n1cnc2c(N(C)CCCN(C)C)cccc2c1=O

pIC50 (MAPK14 (human) [3]): 5.70
Structure (SMILES): Cc1ccc(NC(=O)c2ccnc(N3CCOCC3)c2)cc1-n1cnc2ccc(N(C)CCCN(C)C)cc2c1=O

pIC50 (EGFR (human) [1]): 6.46
Structure (SMILES): C=CC(=O)N1CCC[C@H](n2cnc3c(N)nc(Nc4ccc(N5CCCCC5)cc4)nc32)C1

pIC50 (EGFR (human) [4]): 8.05
Structure (SMILES): C#CCCCN1CCN(Cc2c(C)ncnc2Nc2ccc(OCc3cccc(F)c3)c(Cl)c2)CC1

pIC50 (MAPK14 (human) [5]): 4.77
Structure (SMILES): CNc1nccc(-c2cn(C(C)C)nc2-c2cc(Cl)cc(NS(C)(=O)=O)c2F)n1

Structure (SMILES): O=c1ncn2nc(Sc3ccc(Cl)c(Cl)c3)ccc2c1-c1c(Cl)cccc1Cl
pIC50 (MAPK14 (human) [6]): 5.66

pIC50 (EGFR [7]): < 4.70
Structure (SMILES): COc1cc2cc(C3C=CC=C3)cnc2cc1OC

pIC50 (EGFR (human) [8]): 3.70
Structure (SMILES): FC(F)(F)c1cccc(Nc2ncnc3[nH]c(Cc4ccc(Cl)cc4Cl)cc23)c1

pIC50 (EGFR (human) [9]): ≥ 7.00
Structure (SMILES): C#Cc1cccc(Nc2ncnc3cc(OC)c(OCCCCC(=O)O)cc23)c1

pIC50 (EGFR (human) [10]): < 3.70 | pIC50 (EGFR (human) [11]): 4.33
Structure (SMILES): Nc1nc(Nc2ccc(Cl)cc2F)c2cc(Cc3cccc4ccccc34)[nH]c2n1

pIC50 (EGFR (human) [12]): < 4.00
Structure (SMILES): COc1cc(O)c2c(=O)n(-c3cccc(C(=O)N4CCCCC4)c3)ccc2c1NC(=O)Nc1ccc(C(=O)N2CCN(C)CC2)cc1

pIC50 (PIK3CA (human) [13]): 5.21
Structure (SMILES): CS(=O)(=O)Nc1cccc(-c2cc(N3CCOCC3)nc(OCc3ccccn3)n2)c1
GI50 (PIK3CA (human) [14]): 13.5 µM

pIC50 (EGFR (human) [15]): 6.89
Structure (SMILES): C=C(CN1CCOCC1)C(=O)Nc1ccc2ncnc(Nc3cccc(Br)c3)c2c1

Structure (SMILES): CC(=O)OCCCCc1nc(-c2ccc(F)cc2)c(-c2ccncc2)n1COCC[Si](C)(C)C
inhibition (MAPK14 [16]; concentration not given here): 74%

Structure (SMILES): COC(=O)CCc1c(C)c[nH]c1C=C1C(=O)Nc2ccccc21
IC100 (EGFR (murine)): 100 µM

pIC50 (EGFR [17]): 6.05
Structure (SMILES): O=[N+]([O-])c1ccc2ncnc(Nc3cccc(Br)c3)c2c1

pIC50 (EGFR (human) [9]): ≥ 7.00
Structure (SMILES): C#Cc1cccc(Nc2ncnc3cc(OC)c(OCCCCCCC(=O)O)cc23)c1

pIC50 (EGFR (murine)): 4.70
Structure (SMILES): O=C1Nc2ccccc2C1=Cc1ccc(N2CCOCC2)cc1

activity (CDK2): 42% | activity (MAPK14 [18]): 99% | activity (ROCK2): 89% | inhibition (EGFR [19]): 0
Structure (SMILES): CN(C)CCCn1cc(C2=C(c3c[nH]c4ccccc34)C(=O)NC2=O)c2ccccc21

pIC50 (EGFR (human) [20]): 8.10
Structure (SMILES): CCOc1cc2ncnc(Nc3ccc(F)c(Cl)c3)c2cc1NC(=O)/C=C/[C@H]1CCCN1C

pIC50 (MAPK14 (human) [21]): 6.41
Structure (SMILES): O=C1NCN2N=C(Sc3ccc(F)cc3)C=CC2=C1c1c(Cl)cccc1Cl

pIC50 (EGFR [22]): ≥ 3.73
Structure (SMILES): CCC(C)[C@H](NC(=O)[C@H](CCC(=O)O)NC(=O)[C@H](CCC(=O)O)NC(=O)C(Cc1ccc(CCC(=O)C=O)cc1)NC(C)=O)C(=O)N[C@@H](CCC(=O)O)C(=O)O (some centres not stated) (Ac-[X2]EE[Ile(3ξ)]E-OH)

pIC50 (EGFR [17]): 6.24
Structure (SMILES): FC(F)(F)c1cccc(Nc2ncnc3ccccc23)c1

pIC50 (MAPK14 [16]): < 4.30
Structure (SMILES): C[S+]([O-])c1ccc(-c2ncn(C3CCN(CCC(=O)O)CC3)c2-c2ccnc([S+](C)[O-])n2)cc1 (configuration not stated)

pIC50 [23]: 6.00 to 7.00
Structure (SMILES): CS(=O)(=O)Nc1ccc(-c2c(F)cnc3[nH]c4cnc(-c5cccnc5)cc4c23)cc1

pIC50 (EGFR (human) [24]): < 4.30
Structure (SMILES): Cn1c(NCc2cccc(C(F)(F)F)c2)cc(=O)n(C)c1=O

pIC50 (EGFR [25]): 7.30
Structure (SMILES): COc1cc2ncnc(Nc3ccccc3)c2cc1OC

pIC50 (PIK3CB (Human)): 4.40
Structure (SMILES): CN(C)c1cc(-c2ccc3ncccc3c2)cnc1Cl

pIC50 (MAPK14 (human) [26]): < 5.00
Structure (SMILES): CCCS(=O)(=O)Nc1ccc(F)c(C(=O)c2c[nH]c3ncc(Cl)cc23)c1F

pIC50 (EGFR (human) [20]): 7.44
Structure (SMILES): CCOc1cc2ncc(C#N)c(Nc3ccc(OCc4ccccn4)c(Cl)c3)c2cc1NC(=O)/C=C/[C@@H]1C[C@@H](O)CN1C

pIC50 (EGFR (human) [4]): 7.01
Structure (SMILES): Cc1ncnc(Nc2ccc(OCc3cccc(F)c3)c(Cl)c2)c1-c1ccc(CNC2CC2)cc1

inhibition (EGFR [19]): 0
Structure (SMILES): CNC(=O)[C@H](CCCCN)NC(=O)[C@H](CCCCN)NC(=O)[C@@H]1CCCN1C(=O)[C@H](CSCCOCCOCCn1cc(C2=C(c3c[nH]c4ccccc34)C(=O)NC2=O)c2ccccc21)NC(C)=O (Ac-C(X1)PKK-NHMe)

pIC50 (MAPK14 (human) [26]): < 5.00
Structure (SMILES): O=C1Nc2ccc(I)cc2/C1=C/c1cc(Br)c(O)c(Br)c1

pIC50 (EGFR (human) [10]): 6.62 | pIC50 (EGFR (human) [11]): 5.25
Structure (SMILES): Cc1ccccc1Cc1cc2c(Nc3ccc(Cl)cc3)nc(N)nc2[nH]1
